# Laboratory results from patent US9422293B2 (priority 2006, dated 2016).
# Counter-ions that a name gives are not always drawn.
# Biological target: rat TRPV1 (Rattus norvegicus (Rat), UniProt O35433)
# Details: read-out: Rat IC50
# Sequence of rat TRPV1 (O35433 whole entry): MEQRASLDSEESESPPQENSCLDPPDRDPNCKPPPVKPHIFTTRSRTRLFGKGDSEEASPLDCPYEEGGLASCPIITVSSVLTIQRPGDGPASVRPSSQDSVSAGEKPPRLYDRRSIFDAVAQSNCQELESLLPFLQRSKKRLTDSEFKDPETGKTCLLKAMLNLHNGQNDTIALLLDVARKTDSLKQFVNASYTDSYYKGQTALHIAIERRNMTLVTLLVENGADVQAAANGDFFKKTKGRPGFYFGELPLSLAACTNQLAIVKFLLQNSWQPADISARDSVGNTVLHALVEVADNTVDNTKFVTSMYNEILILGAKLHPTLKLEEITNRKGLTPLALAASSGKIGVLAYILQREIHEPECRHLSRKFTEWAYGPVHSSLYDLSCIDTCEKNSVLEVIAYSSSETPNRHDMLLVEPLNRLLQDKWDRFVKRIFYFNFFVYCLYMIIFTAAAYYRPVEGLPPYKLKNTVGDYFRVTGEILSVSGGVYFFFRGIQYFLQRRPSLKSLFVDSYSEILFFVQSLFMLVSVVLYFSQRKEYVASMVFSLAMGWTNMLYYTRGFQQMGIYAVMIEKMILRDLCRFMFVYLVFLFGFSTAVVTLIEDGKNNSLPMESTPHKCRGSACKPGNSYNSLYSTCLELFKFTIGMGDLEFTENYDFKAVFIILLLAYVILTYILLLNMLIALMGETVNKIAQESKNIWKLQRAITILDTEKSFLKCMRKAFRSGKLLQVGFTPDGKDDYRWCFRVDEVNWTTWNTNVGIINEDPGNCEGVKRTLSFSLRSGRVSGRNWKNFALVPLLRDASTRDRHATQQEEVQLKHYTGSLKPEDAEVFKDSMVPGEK
row,Compound,IC50 [µM]
1,"CN(C)S(=O)(=O)c1ccc(Nc2nc(N3CCOCC3)nc3c2CCN(c2ncccc2C(F)(F)F)CC3)cc1 [Example 379, N,N-Dimethyl-4-({2-morpholin-4-yl-7-[3-(trifluoromethyl)pyridin-2-yl]-6,7,8,9-tetrahydro-5H-pyrimido[4,5-d]azepin-4-yl}amino)benzenesulfonamide]",0.07
2,"FC(F)(F)c1ccc(Nc2nc(NCC3CCCCC3)nc3c2CCN(c2ncccc2C(F)(F)F)CC3)cn1 [Example 270, N^2-(Cyclohexylmethyl)-7-[3-(trifluoromethyl)pyridin-2-yl]-N^4-[6-(trifluoromethyl)pyridin-3-yl]-6,7,8,9-tetrahydro-5H-pyrimido[4,5-d]azepine-2,4-diamine]",0.83
3,"Cc1ccc(Nc2nc(C(C)C)nc3c2CCN(c2ncccc2C(F)(F)F)CC3)cc1 [Example 151, 2-(1-Methylethyl)-N-(4-methylphenyl)-7-[3-(trifluoromethyl)pyridin-2-yl]-6,7,8,9-tetrahydro-5H-pyrimido[4,5-d]azepin-4-amine hydrochloride salt]",0.82
4,"CCS(=O)(=O)c1cccnc1N1CCc2nc(SC)nc(Nc3ccc(C(F)(F)F)cc3)c2CC1 [Example 305, [7-(3-Ethanesulfonyl-pyridin-2-yl)-2-methylsulfanyl-6,7,8,9-tetrahydro-5H-pyrimido[4,5-d]azepin-4-yl]-(4-trifluoromethyl-phenyl)-amine]",1.12
5,"CC(C)c1nc2c(c(Nc3ccc4c(c3)N(C)CCC4(C)C)n1)CCN(c1ncccc1C(F)(F)F)CC2 [Example 162, [2-Isopropyl-7-(3-trifluoromethyl-pyridin-2-yl)-6,7,8,9-tetrahydro-5H-pyrimido[4,5-d]azepin-4-yl]-(1,4,4-trimethyl-1,2,3,4-tetrahydro-quinolin-7-yl)-amine]",0.03
6,"CC(C)Oc1nc2c(c(Nc3ccc(C(F)(F)F)cc3)n1)CCN(c1ncccc1C(F)(F)F)CC2 [Example 341, 2-[(1-Methylethyl)oxy]l-N-[4-(trifluoromethyl)phenyl]-7-[3-(trifluoromethyl)pyridin-2-yl]-6,7,8,9-tetrahydro-5H-pyrimido[4,5-d]azepin-4-amine trifluoroacetic acid salt]",0.15
7,"CC(C)c1nc2c(c(Nc3ccc(C(C)(C)CO)cc3)n1)CCN(c1ncccc1C(F)(F)F)CC2 [Example 181, 2-Methyl-2-[4-({2-(1-methylethyl)-7-[3-(trifluoromethyl)pyridin-2-yl]-6,7,8,9-tetrahydro-5H-pyrimido[4,5-d]azepin-4-yl}amino)phenyl]propan-1-ol]",0.82
8,"Cc1cc(C(F)(F)F)ccc1Nc1nc(OC(C)C2CC2)nc2c1CCN(c1ncccc1C(F)(F)F)CC2 (stereo not shown) [Example 325, 2-[(1-Cyclopropylethyl)oxy]-N-[2-methyl-4-(trifluoromethyl)phenyl]-7-[3-(trifluoromethyl)pyridin-2-yl]-6,7,8,9-tetrahydro-5H-pyrimido[4,5-d]azepin-4-amine]",0.3
9,"CC(C)c1nc2c(c(Nc3ccc(C(F)(F)F)c(Cl)c3)n1)CCN(c1ncccc1C(F)(F)F)CC2 [Example 128, N-[3-Chloro-4-(trifluoromethyl)phenyl]-2-(1-methylethyl)-7-[3-(trifluoromethyl)pyridin-2-yl]-6,7,8,9-tetrahydro-5H-pyrimido[4,5-d]azepin-4-amine]",0.15
10,"OCC1CCCCN1c1nc2c(c(Nc3ccc(C(F)(F)F)cc3)n1)CCN(c1ncccc1C(F)(F)F)CC2 (stereo not shown) [Example 259, [1-(4-{[4-(Trifluoromethyl)phenyl]amino}-7-[3-(trifluoromethyl)pyridin-2-yl]-6,7,8,9-tetrahydro-5H-pyrimido[4,5-d]azepin-2-yl)piperidin-2-yl]methanol]",0.09
11,"COC(=O)C(C)(C)c1ccc(Nc2nc(N3CCOCC3)nc3c2CCN(c2ncccc2C(F)(F)F)CC3)cc1 [Example 376, 2-Methyl-2-{4-[2-morpholin-4-yl-7-(3-trifluoromethyl-pyridin-2-yl)-6,7,8,9-tetrahydro-5H-pyrimido[4,5-d]azepin-4-ylamino]-phenyl}-propionic acid methyl ester]",0.11
12,"CC(C)c1nc2c(c(Nc3ccc(Oc4ccccc4)cc3)n1)CCN(c1ncccc1C(F)(F)F)CC2 [Example 25, [2-Isopropyl-7-(3-trifluoromethyl-pyridin-2-yl)-6,7,8,9-tetrahydro-5H-pyrimido[4,5-d]azepin-4-yl]-(4-phenoxy-phenyl)-amine]",0.77
13,"FC(F)(F)c1ccc(Nc2nc(N3CCNCC3)nc3c2CCN(c2ncccc2C(F)(F)F)CC3)cc1 [Example 99B, [2-Piperazin-1-yl-7-(3-trifluoromethyl-pyridin-2-yl)-6,7,8,9-tetrahydro-5H-pyrimido[4,5-d]azepin-4-yl]-(4-trifluoromethyl-phenyl)-amine trifluoroacetic acid salt]",7.2
14,"FC(F)(F)c1ccc(Nc2nc(N3CCOCC3)nc3c2CCN(c2ncccc2C(F)(F)F)CC3)cc1Cl [Example 381, (3-Chloro-4-trifluoromethyl-phenyl)-[2-morpholin-4-yl-7-(3-trifluoromethyl-pyridin-2-yl)-6,7,8,9-tetrahydro-5H-pyrimido[4,5-d]azepin-4-yl]-amine]",0.04
15,"CC(C)N(C)c1nc2c(c(Nc3ccc(C(F)(F)F)cc3)n1)CCN(c1ncccc1C(F)(F)F)CC2 [Example 272, N^2-Methyl-N^2-(1-methylethyl)-N^4-[4-(trifluoromethyl)phenyl]-7-[3-(trifluoromethyl)pyridin-2-yl]-6,7,8,9-tetrahydro-5H-pyrimido[4,5-d]azepine-2,4-diamine]",0.2
16,"OC[C@H]1CCCN1c1nc2c(c(Nc3ccc(C(F)(F)F)cc3)n1)CCN(c1ncccc1C(F)(F)F)CC2 [Example 261, [(2R)-1-(4-{[4-(Trifluoromethyl)phenyl]amino}-7-[3-(trifluoromethyl)pyridin-2-yl]-6,7,8,9-tetrahydro-5H-pyrimido[4,5-d]azepin-2-yl)pyrrolidin-2-yl]methanol hydrochloride salt]",0.34
17,"CC(C)c1ccc(Nc2nc(C(C)C)nc3c2CCN(c2ncccc2C(F)(F)F)CC3)cc1 [Example 137, 2-(1-Methylethyl)-N-[4-(1-methylethyl)phenyl]-7-[3-(trifluoromethyl)pyridin-2-yl]-6,7,8,9-tetrahydro-5H-pyrimido[4,5-d]azepin-4-amine]",0.06
18,"FC(F)(F)c1cccnc1N1CCc2nc(C3CC3)nc(Nc3ccc(Cl)cc3)c2CC1 [Example 4, (4-Chloro-phenyl)-[2-cyclopropyl-7-(3-trifluoromethyl-pyridin-2-yl)-6,7,8,9-tetrahydro-5H-pyrimido[4,5-d]azepin-4-yl]-amine]",0.5
19,"CC(C)c1nc2c(c(Nc3ccc(S(=O)(=O)N4CCCC4)cc3)n1)CCN(c1ncccc1C(F)(F)F)CC2 [Example 152, 2-(1-Methylethyl)-N-[4-(pyrrolidin-1-ylsulfonyl)phenyl]-7-[3-(trifluoromethyl)pyridin-2-yl]-6,7,8,9-tetrahydro-5H-pyrimido[4,5-d]azepin-4-amine]",0.55
20,"CSc1nc2c(c(Nc3ccc(C(F)(F)F)cc3C)n1)CCN(c1ncccc1C(F)(F)F)CC2 [Example 204, 2-(Methylsulfanyl)-N-[2-methyl-4-(trifluoromethyl)phenyl]-7-[3-(trifluoromethyl)pyridin-2-yl]-6,7,8,9-tetrahydro-5H-pyrimido[4,5-d]azepin-4-amine]",0.56
21,"COc1ccc(Nc2nc(N(C)C)nc3c2CCN(c2ncccc2C(F)(F)F)CC3)cc1 [Example 81B, N^4-(4-Methoxy-phenyl)-N^2,N^2-dimethyl-7-(3-trifluoromethyl-pyridin-2-yl)-6,7,8,9-tetrahydro-5H-pyrimido[4,5-d]azepine-2,4-diamine trifluoroacetic acid salt]",0.97
22,"FC(F)(F)c1ccc(Nc2nc(N3C4CCC3CC4)nc3c2CCN(c2ncccc2C(F)(F)F)CC3)cc1 [Example 268, 2-(7-Azabicyclo[2.2.1]hept-7-yl)-N-[4-(trifluoromethyl)phenyl]-7-[3-(trifluoromethyl)pyridin-2-yl]-6,7,8,9-tetrahydro-5H-pyrimido[4,5-d]azepin-4-amine]",0.15
23,"FC(F)(F)c1ccc(Nc2nc(N3CCC3)nc3c2CCN(c2ncccc2C(F)(F)F)CC3)cc1Cl [Example 231, 2-Azetidin-1-yl-N-[3-chloro-4-(trifluoromethyl)phenyl]-7-[3-(trifluoromethyl)pyridin-2-yl]-6,7,8,9-tetrahydro-5H-pyrimido[4,5-d]azepin-4-amine trifluoroacetic acid salt]",0.1
24,"O[C@H]1CCCN(c2nc3c(c(Nc4ccc(C(F)(F)F)cc4)n2)CCN(c2ncccc2C(F)(F)F)CC3)C1 [Example 94B, (S)-1-[4-(4-Trifluoromethyl-phenylamino)-7-(3-trifluoromethyl-pyridin-2-yl)-6,7,8,9-tetrahydro-5H-pyrimido[4,5-d]azepin-2-yl]-piperidin-3-ol trifluoroacetic acid salt]",0.19
25,"Cc1cc(C(F)(F)F)ccc1Nc1nc(Sc2ccccc2)nc2c1CCN(c1ncccc1C(F)(F)F)CC2 [Example 351, N-[2-Methyl-4-(trifluoromethyl)phenyl]-2-(phenylsulfanyl)-7-[3-(trifluoromethyl)pyridin-2-yl]-6,7,8,9-tetrahydro-5H-pyrimido[4,5-d]azepin-4-amine]",0.75
26,"CN1CCN(c2nc3c(c(Nc4ccc(C(F)(F)F)c(Cl)c4)n2)CCN(c2ncccc2C(F)(F)F)CC3)CC1 [Example 221, N-[3-Chloro-4-(trifluoromethyl)phenyl]-2-(4-methylpiperazin-1-yl)-7-[3-(trifluoromethyl)pyridin-2-yl]-6,7,8,9-tetrahydro-5H-pyrimido[4,5-d]azepin-4-amine]",0.72

# Same assay, conditions: read-out: Rat IC50; hydrochloride salt
row,Compound,IC50 [µM]
1,"CC(C)c1nc2c(c(Nc3ccc(C(F)(F)F)cn3)n1)CCN(c1ncccc1C(F)(F)F)CC2 [Example 20A, [2-Isopropyl-7-(3-trifluoromethyl-pyridin-2-yl)-6,7,8,9-tetrahydro-5H-pyrimido[4,5-d]azepin-4-yl]-(5-trifluoromethyl-pyridin-2-yl)-amine hydrochloride salt]",0.25
2,"FC(F)(F)c1ccc(Nc2ncnc3c2CCN(c2ncccc2C(F)(F)F)CC3)cc1 [Example 2A, (4-Trifluoromethyl-phenyl)-[7-(3-trifluoromethyl-pyridin-2-yl)-6,7,8,9-tetra-hydro-5H-pyrimido[4,5-d]azepin-4-yl]-amine hydrochloride salt]",0.42
